Laboratory results as given in patent US6265578A, “Pyrimidine-2,4,6-triones” (Hoffmann-La Roche Inc., priority 2000, dated 2001).
Like-named read-outs stand apart in the source and are kept apart here.

Tests used:
Format in all cases: biochemical
[1] = target: T1, human collagenase-3 (catalytic domain) (Homo sapiens, UniProt P45452); assay: IC50 for inhibition of the catalytic domain of human collagenase-3, fluorogenic peptide cleavage assay (Coll-3)
T1 construct: ubiquitin (cleaved yes); made in house; host or cells: bacterial expression system (analogous to matrilysin)
Description: Human matrilysin was obtained from a bacterial expression system as a ubiquitin fusion construct Welch, A. R., Holman, C. […] The mature form of matrilysin was purified following activation with 1 mM APMA (1 hour, 37° C.) and the active enzyme stored at -80° C. The catalytic domain of human collagenase-3 was obtained in a manner analogous to that for matrilysin. The final form of collagenase-3 used for these studies consisted of the residues Tyr104 -Asn274 from the full length collagenase sequence.
For matrilysin and the catalytic domain of collagenase-3, the buffer composition was pH 7.5, 50 mM Hepes, 200 mM NaCl, 5 mM CaCl2, 20 μM ZnCl2, 0.05% (wt/v) Brij-35. The final substrate concentration in all cases 10 μM. The approximate concentrations for the enzymes were: gelatinase-A, 0.8 nM; gelatinase-B, 0.5 nM; collagenase-3, 0.4 nM; matrilysin, 10 nM. To perform the peptide cleavage assay, the vessel containing buffer and compound of formula I were pre-equilibrated at 37° C., then the reaction initiated by successive addition of concentrated stocks of enzyme and substrate, and incubation at 37° C. was continued. At successive time points between 30 and 120 minutes, 50 μL aliquots of the assays were pulled and the enzymatic reaction stopped by addition to 150 μL of 30 mM EDTA (pH 7.4) in the well of a black, flat bottom microtiter plate.
% inh[I]=100(1-rate[I]/ratePC)
(§2) % inh[I]=percent inhibition at inhibitor concentration [I]
(§3) rate[I]=rate at inhibitor concentration [I]
ratePC=rate of positive control […]

[2] = target: T2, gelatinase-A (human 72 kDa gelatinase) (Homo sapiens, UniProt P08253); assay: IC50 for inhibition of gelatinase-A (human 72 kDa gelatinase), fluorogenic peptide cleavage assay (GelA)
T2 construct: endogenous in cells; host or cells: fetal lung fibroblasts (purified from conditioned media)
T2 sequence (P08253 110-660): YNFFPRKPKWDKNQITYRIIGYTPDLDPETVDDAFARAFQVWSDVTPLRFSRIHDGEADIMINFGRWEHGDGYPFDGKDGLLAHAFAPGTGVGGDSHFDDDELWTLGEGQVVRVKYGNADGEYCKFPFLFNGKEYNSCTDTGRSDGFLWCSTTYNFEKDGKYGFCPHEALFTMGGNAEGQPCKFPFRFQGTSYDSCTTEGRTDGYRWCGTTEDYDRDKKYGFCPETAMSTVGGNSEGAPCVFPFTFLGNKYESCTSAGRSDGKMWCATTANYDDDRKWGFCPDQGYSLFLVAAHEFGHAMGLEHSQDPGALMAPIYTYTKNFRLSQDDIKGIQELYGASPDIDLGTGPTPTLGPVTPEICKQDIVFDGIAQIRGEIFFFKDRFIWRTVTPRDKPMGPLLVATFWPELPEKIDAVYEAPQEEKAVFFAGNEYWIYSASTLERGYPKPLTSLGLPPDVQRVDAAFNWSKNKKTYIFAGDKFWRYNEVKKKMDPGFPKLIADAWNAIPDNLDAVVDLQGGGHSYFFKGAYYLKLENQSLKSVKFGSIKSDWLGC
Description: (§1) Human 72 kDa gelatinase was purified from the conditioned media of fetal lung fibroblasts according to known methods. The enzyme was stored in the pro-form at -80° C. and activated prior to use by treatment with 1 mM aminophenyl mercuriacetate (APMA) for 1 hour at 37° C., then dialyzed against reaction buffer before use. Human neutrophil gelatinase (95 kDa gelatinase) was purified from conditioned media of NSO-cells according to known methods. This enzyme was likewise stored in the zymogen form at -80° C. It was activated by treatment with trypsin (5 μg/mL) for 1 hour at 37° C., followed by addition of bovine pancreatic trypsin inhibitor to 50 μg/mL. Human matrilysin was obtained from a bacterial expression system as a ubiquitin fusion construct Welch, A. R., Holman, C. M., Browner, M. F., Gehring, M. R., Kan, C.-C., & Van Wart, H. E. (1995) Arch. Biochem. Biophys. 324, 59-64. The mature form of matrilysin was purified following activation with 1 mM APMA (1 hour, 37° C.) and the active enzyme stored at -80° C. The catalytic domain of human collagenase-3 was obtained in a manner analogous to that for matrilysin. The final form of collagenase-3 used for these studies consisted of the residues Tyr104 -Asn274 from the full length collagenase sequence. The catalytic domain of human stromelysin-1 was produced via E. coli expression and purification according to known methods; the activated, catalytic domain was stored at -80° C.
The assay methods utilized the fluorogenic substrate: Dnp-Pro-Cha-Gly-Cys(Me)-His-Ala-Lys(NMA)-NH2. (Dnp=dinitro phenyl; Cha=cyclohexylalanine; Cys(Me)=S-methyl cysteine, Lys(NMA)=N^ε-methyl-anthranoyl-1-lysine). Stock solutions were prepared in DMSO. Stock solutions of compounds of formula I (inhibitor) were also prepared in DMSO.
For gelatinase-A and gelatinase-B, the buffer was pH 7.5, 50 mM TrisHCl, 200 mM NaCl, 5 mM CaCl2, 20 μM ZnCl2, 0.05% (wt/v) Brij-35. For matrilysin and the catalytic domain of collagenase-3, the buffer composition was pH 7.5, 50 mM Hepes, 200 mM NaCl, 5 mM CaCl2, 20 μM ZnCl2, 0.05% (wt/v) Brij-35. The final substrate concentration in all cases 10 μM. The approximate concentrations for the enzymes were: gelatinase-A, 0.8 nM; gelatinase-B, 0.5 nM; collagenase-3, 0.4 nM; matrilysin, 10 nM. […] The extent of substrate conversion was determined by reading the fluorescence of the stopped reactions (excitation wavelength: 355 nm; emission wavelength: […]).
A rate at each inhibitor concentration was obtained from a linear least squares fit to the fluorescence time course. The percent inhibition at inhibitor concentration [I] was calculated as: […]

[3] = test system: human stromelysin-1 (catalytic domain); assay: IC50 for inhibition of the catalytic domain of human stromelysin-1, fluorogenic substrate assay (Strom-1); settings: pH 6.5, ambient temperature, 60 min, 10 μM substrate, 10 nM enzyme
Description: as §1
The assay methods utilized the fluorogenic substrate: Dnp-Pro-Cha-Gly-Cys(Me)-His-Ala-Lys(NMA)-NH2. […]
Measurements for stromelysin-1: the catalytic domain of stromelysin-1 was tested using the same substrate but with a modified protocol. […] The reaction was started by addition of an aliquot of enzyme stock and the generated fluorescence was read directly after 60 minutes. […] The % inh[I] was calculated as: […]
where Fluor[I]=corrected fluorescence at 60 minutes observed for inhibitor concentration [I]
FluorPC=corrected fluorescence at 60 minutes observed for the positive control […]

[4] = target: T3, gelatinase-B (human neutrophil gelatinase, 95 kDa gelatinase) (Homo sapiens, UniProt P14780); assay: IC50 for inhibition of gelatinase-B (human neutrophil gelatinase, 95 kDa), fluorogenic peptide cleavage assay (GelB)
T3 construct: made in house; host or cells: NSO-cells (purified from conditioned media)
T3 sequence (P14780 107-707 limits assumed): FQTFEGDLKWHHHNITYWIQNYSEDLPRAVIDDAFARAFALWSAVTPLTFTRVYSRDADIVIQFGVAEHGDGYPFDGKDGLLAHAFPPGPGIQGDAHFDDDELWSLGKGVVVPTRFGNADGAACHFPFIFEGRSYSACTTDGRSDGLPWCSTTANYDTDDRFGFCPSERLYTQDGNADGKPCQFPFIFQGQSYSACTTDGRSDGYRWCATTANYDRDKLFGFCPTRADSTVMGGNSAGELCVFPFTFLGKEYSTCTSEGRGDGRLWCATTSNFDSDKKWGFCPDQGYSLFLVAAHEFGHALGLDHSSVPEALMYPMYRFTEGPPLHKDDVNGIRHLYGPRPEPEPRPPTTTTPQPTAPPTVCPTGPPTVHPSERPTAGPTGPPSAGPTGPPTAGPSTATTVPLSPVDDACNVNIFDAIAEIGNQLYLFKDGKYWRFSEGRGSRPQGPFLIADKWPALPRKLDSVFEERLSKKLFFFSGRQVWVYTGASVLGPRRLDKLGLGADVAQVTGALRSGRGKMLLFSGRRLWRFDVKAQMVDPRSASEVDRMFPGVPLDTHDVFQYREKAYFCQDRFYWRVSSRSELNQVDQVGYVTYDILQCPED
Description: For gelatinase-A and gelatinase-B, the buffer was pH 7.5, 50 mM TrisHCl, 200 mM NaCl, 5 mM CaCl2, 20 μM ZnCl2, 0.05% (wt/v) Brij-35. […] The final substrate concentration in all cases 10 μM. The approximate concentrations for the enzymes were: gelatinase-A, 0.8 nM; gelatinase-B, 0.5 nM; collagenase-3, 0.4 nM; matrilysin, 10 nM. To perform the peptide cleavage assay, the vessel containing buffer and compound of formula I were pre-equilibrated at 37° C., then the reaction initiated by successive addition of concentrated stocks of enzyme and substrate, and incubation at 37° C. was continued. At successive time points between 30 and 120 minutes, 50 μL aliquots of the assays were pulled and the enzymatic reaction stopped by addition to 150 μL of 30 mM EDTA (pH 7.4) in the well of a black, flat bottom microtiter plate. The extent of substrate conversion was determined by reading the fluorescence of the stopped reactions (excitation wavelength: 355 nm; emission wavelength: 460 nM).
% inh[I]=100(1-rate[I]/ratePC)
as §2, §3
ratePC=rate of positive control […]

[5] = catalytic domain, pH 7.5, 37° C., 10 μM substrate, 0.4 nM enzyme, 5% DMSO, read-out: IC50 Coll-3

| Compound | IC50 [1, 5] [nM] | IC50 [2] [nM] | IC50 [3] [nM] | IC50 ([4]; pH 7.5, 37° C., 10 μM substrate, 0.5 nM enzyme, 5% DMSO, read-out: IC50 GelB) [nM] | IC50 [4] [nM] | IC50 [1] [nM] | IC50 ([3]; value in nM) [nM] | IC50 ([2]; pH 7.5, 37° C., 10 μM substrate, 0.8 nM enzyme, 5% DMSO, read-out: IC50 GelA) [nM] |
| --- | --- | --- | --- | --- | --- | --- | --- | --- |
| CC1(c2ccc(Oc3ccccc3)cc2)C(=O)NC(=O)NC1=O [A, 5-methyl-5-(4-phenoxyphenyl)pyrimidine-2,4,6-trione] | 65 | 80 | 2000 | 52 | – | – | – | – |
| CCCCCCC1(c2ccc(Oc3ccccc3)cc2)C(=O)NC(=O)NC1=O [B, 5-hexyl-5-(4-phenoxyphenyl)pyrimidine-2,4,6-trione] | 78 | 67 | 2000 | – | 50 | – | – | – |
| O=C1NC(=O)C(COCc2ccccc2)(c2ccc(Oc3ccccc3)cc2)C(=O)N1 [C, 5-benzyloxymethyl-5-(4-phenoxyphenyl)pyrimidine-2,4,6-trione] | – | 26 | – | – | 23 | 47 | 930 | – |
| O=C1NC(=O)C(CCO)(c2ccc(Oc3ccccc3)cc2)C(=O)N1 [D, 5-(2-hydroxyethyl)-5-(4-phenoxyphenyl)pyrimidine-2,4,6-trione] | – | – | – | – | – | – | – | 59 |
